From patent US6344214B1, “Method for retarding and ameliorating fever blisters and canker sores” (priority 1999, dated 2002)
Where two headings read alike, the source gives them in different places.

What was measured:
rat kidney fibroblasts = details: UVA light for four hours; cited from earlier work
shrimp = details: 50 mg/kg diet, 3 months; cited from earlier work
herpes Simplex virus = details: cited from earlier work
CYP1A1 = details: dietary level 300 ppm; cited from earlier work
[1] = tested on: preneoplastic lesions and neoplasms in the bladder; details: 50-ppm astaxanthin in drinking water; cited from earlier work
canker sores = assay: Example 2: oral astaxanthin soft gel capsules, canker sores in one individual; assay type: in vivo, human
Experimental: (§1) Haematococcus algae meal containing 1.5% astaxanthin was thoroughly mixed with safflower oil such that the resulting suspension contained 2.0 mg of pure astaxanthin per gram of safflower oil suspension. 500 mg soft gel capsules were produced from the safflower oil suspension such that each soft gel capsule contained 1.0 mg of pure astaxanthin.
A second individual was a person who had often suffered canker sores on the inside of their mouth. They had difficulty and pain eating sour and tart foods due to the condition. This individual consumed 2.0 mg of astaxanthin (two soft gel capsules) per day for three weeks and the cankers sores were alleviated. They were then able to eat sour and tart foods without suffering pain from the canker sores. When the individual stopped taking the supplement the canker sores returned within 10 days.

[2] = tested on: free putrescine in the epidermis; details: 10 ppm astaxanthin diet, 4 months; control increased 4.1-fold; cited from earlier work
rats = details: 400 ppm for 41 days; cited from earlier work
[3] = tested on: neoplasms in the oral cavity; details: cited from earlier work
[4] = tested on: photoreceptor cells of the retina; details: 37.5 mg/kg intraperitoneal at 12 hour intervals; uninjured control 45, injured without astaxanthin 32; cited from earlier work
cold sores = assay: Example 1: oral astaxanthin soft gel capsules, cold sore outbreaks in one individual; assay type: in vivo, human
Experimental: as §1
One individual was a person who has suffered from cold sore outbreaks every 4-6 weeks on average which lasted 10-14 days . This individual consumed 3.0 mg of astaxanthin (three soft gel capsules) per day for two weeks prior to an outbreak, and the symptoms lasted only 2 days instead of 2 weeks.

neoplastic liver lesions = details: dietary astaxanthin; cited from earlier work
[5] = tested on: neoplasms in the large intestines; details: rats fed astaxanthin, azoxymethane induction; cited from earlier work
[6] = 2 mg astaxanthin capsule, six months; placebo 21.78; P=0.047; cited from earlier work
rhodopsin = details: oral dosing, cited from earlier work
[7] = 0.1% dietary astaxanthin for 30 days, cited from earlier work
[8] = tested on: chicken embryo fibroblasts (CEF); details: SOD, catalase, glutathione peroxidase as indices; cited from earlier work
[9] = in vivo; cited from earlier work
Atlantic salmon fry = details: cited from earlier work

CC1=C(/C=C/C(C)=C/C=C/C(C)=C/C=C/C=C(C)/C=C/C=C(C)/C=C/C2=C(C)CCCC2(C)C)C(C)(C)CCC1 [beta-carotene]
level required to restore superoxide dismutase activity (rat kidney fibroblasts): 500 nM | level that prevented the UVA-induced increase in TBARS (rat kidney fibroblasts): 100 nM | level that returned catalase activity to control levels (rat kidney fibroblasts): 1000 nM | average survival rate (shrimp): 50%

Nc1nc2c(ncn2COCCO)c(=O)[nH]1 [acyclovir, Acyclovir]
patients with no fever blister outbreaks (herpes Simplex virus; four acyclovir pills daily for 4 months): 50% | effectiveness against fever blisters (herpes Simplex virus; pills taken at onset of symptoms, or cream applied to blisters or tingling lip areas, separate studies): only minimally effective

CC1=C[C@H](O)CC(C)(C)[C@H]1/C=C/C(C)=C/C=C/C(C)=C/C=C/C=C(C)/C=C/C=C(C)/C=C/C1=C(C)C[C@@H](O)CC1(C)C [lutein]
level required to restore superoxide dismutase activity (rat kidney fibroblasts): 1000 nM | level that prevented the UVA-induced increase in TBARS (rat kidney fibroblasts): 1000 nM | level that returned catalase activity to control levels (rat kidney fibroblasts): 100 nM

CC1=C(/C=C/C(C)=C/C=C/C(C)=C/C=C/C=C(C)/C=C/C=C(C)/C=C/C2=C(C)C(=O)[C@@H](O)CC2(C)C)C(C)(C)C[C@H](O)C1=O [astaxanthin]
induction of CYP1A1 (CYP1A1): strong inducer | level required to restore superoxide dismutase activity (rat kidney fibroblasts): 5 nM | level that prevented the UVA-induced increase in TBARS (rat kidney fibroblasts): 1 nM | level that returned catalase activity to control levels (rat kidney fibroblasts): 5 nM | incidence of preneoplastic lesions and neoplasms in the bladder [1]: significantly reduced incidence | effect on canker sores (canker sores; 2.0 mg astaxanthin per day (two soft gel capsules) for three weeks): alleviated | time to return of canker sores after stopping the supplement (canker sores; after stopping 2.0 mg per day): ≤ 10 days | effect on symptoms on taking the supplement again (canker sores; same dosage, 2.0 mg per day): ameliorated after approximately three weeks | increase of putrescine after UV irradiation [2]: 1.5 fold | effects on body/organ weight, enzyme activities, pregnancy, litter size (rats): no harmful effects | incidences of preneoplastic and neoplasms in the oral cavity ([3]; 100-ppm dietary astaxanthin after the carcinogenic chemical induction): significantly smaller | oral neoplasms ([3]; astaxanthin and the chemical inducer fed at the same time): no oral neoplasms developed | outer nuclear layer (ONL) thickness after photic injury [4]: 42 microns | duration of cold sore symptoms (cold sores; 3.0 mg astaxanthin per day (three soft gel capsules) for two weeks before the outbreak, earlier 10-14 days): 2 days | recurrence of cold sores (cold sores; 3.0 mg per day, earlier outbreaks every 4-6 weeks): has not had a another recurrence of cold sores in three months | number and size of neoplastic liver lesions (neoplastic liver lesions): significant influence on the reduction in number and size | incidence and multiplicity of neoplasms in the large intestines [5]: significantly smaller | strength/endurance average score (knee bends with a barbell weight) [6]: 61.74 | retinal rhodopsin level (rhodopsin; 6-hour post injury, control 0.75): 1.15 to 1.2 nmol | retinal rhodopsin level (rhodopsin; 6 days after injury, constant through day 13, control 0.5): about 1.25 nmol | LDL cholesterol ([7]; control diet 12.5): 9.6 mg/dL | HDL cholesterol ([7]; control diet 42.4): 57 mg/dL | protection against paraquat-induced oxidative stress [8]: observed at all levels of astaxanthin tested | crossing of the blood-brain barrier [9]: able to readily cross the blood-brain barrier | average survival rate (shrimp): 87% | survival rate (Atlantic salmon fry; astaxanthin concentrations below 1 ppm in diet): less than 50% | survival rate (Atlantic salmon fry; groups receiving higher concentrations): greater than 90%
